The structures appear in SMILES notation.

Consider 30 molecules from US10196391B2 (Hoffmann-La Roche Inc., priority 2014, dated 2019).

This assay has as its system HBsAg. In words: HBsAg assay (CLIA) in HepG2.2.15 cells. Type of assay: cell-based, HBV. As to conditions: Hepatitis B virus, HepG2.2.15, read-out: IC50 (HBsAg assay). The method, then:
HepG2.2.15 cells (Acs et al. Proc Natl Acad Sci USA, 84, (1987), 4641-4), a constitutively HBV-expressing cell line were cultured in DMEM+Glutamax-I medium (Invitrogen, Carlsbad, Calif., USA), supplemented with 10% fetal bovine serum (Invitrogen) and G418 (Invitrogen) at a final concentration of 200 mg/L and maintained in 5% CO2 at 37° C.
HepG2.2.15 cells were seeded in duplicate into white, 96-well plates at 1.5×10^4 cells/well. The cells were treated with a three-fold serial dilution series of the compounds in DMSO. The final DMSO concentration in all wells was 1% and DMSO was used as no drug control.
The HBsAg chemiluminescence immunoassay (CLIA) kit (Autobio Diagnostics Co., Zhengzhou, China, Catalog number: CL0310-2) was used to measure the levels of secreted HBV antigens semi-quantitatively. For the detection 50 μL/well culture supernatant was used and HBsAg was quantified using HBsAg chemiluminescence immunoassay (CLIA) kit (Autobio Diagnostics Co., Zhengzhou, China, Catalog number: CL0310-2), 50 μL of the supernatant was transferred to the CLIA assay plate and 50 μL of enzyme conjugate reagent was added into each well. The plates were sealed and gently agitated for 1 hour at room temperature. The supernatant-enzyme-mixture was discarded and wells were washed 6 times with 300 μL of PBS. The residual liquid was removed by plating the CLIA plate […] on absorbent tissue paper. 25 μL of substrates A and B were added to each well. Luminance was measured using a luminometer (Mithras LB 940 Multimode Microplate Reader) after 10 minutes incubation. Dose-response curves were generated and the IC50 value was extrapolated by using the E-WorkBook Suite (ID Business Solutions Ltd., Guildford, UK). The IC50 was defined as the compound concentration (or conditioned media log dilution) at which HBsAg secretion was reduced by 50% compared to the no drug control.
The compounds according to formula I were tested for their capacity to inhibit HBsAg as described herein.
One may read the IC50 as the concentration at which inhibition is half-maximal. For `Fc1cc(F)cc(N2CCc3nc(-c4ccccn4)ncc3C2)c1` [Example 13, 6-(3,5-difluorophenyl)-2-(2-pyridyl)-7,8-dihydro-5H-pyrido[4,3-d]pyrimidine], the IC50 amounted to 1.04 µM.

Turning to `COC(=O)c1ccc(N2CCc3nc(-c4ccccn4)ncc3C2)cc1F` [Example 15, methyl 2-fluoro-4-[2-(2-pyridyl)-7,8-dihydro-5H-pyrido[4,3-d]pyrimidin-6-yl]benzoate], the half-inhibitory concentration (IC50) was found to be 9.23 µM.

As to `CC1CN(c2ccc([N+](=O)[O-])cc2)Cc2cnc(-c3ccccn3)nc21` (stereo not drawn) [Example 48, 8-methyl-6-(4-nitrophenyl)-2-(2-pyridyl)-7,8-dihydro-5H-pyrido[4,3-d]pyrimidine], the IC50 was 1.38 µM.

As to `Cc1cccnc1-c1ncc2c(n1)CCN(c1ccc(S(C)(=O)=O)cc1)C2` [Example 4, 2-(3-methyl-2-pyridyl)-6-(4-methylsulfonylphenyl)-7,8-dihydro-5H-pyrido[4,3-d]pyrimidine], the IC50 was 17.8 µM.

For `COCCCOc1ccc(N2CCc3nc(-c4ccccn4)ncc3C2)cc1F` [Example 56, 6-[3-fluoro-4-(3-methoxypropoxy)phenyl]-2-(2-pyridyl)-7,8-dihydro-5H-pyrido[4,3-d]pyrimidine], the IC50 came out at 1.84 µM.

Consider `C/C=C/c1nc(-c2ccccn2)nc2c1CN(c1ccc(S(C)(=O)=O)cc1)CC2` [Example 84], for which the IC50 is 8.56 µM.

With `c1ccc(-c2ncc3c(n2)CCN(c2ccccn2)C3)nc1` [Example 35, 2,6-bis(2-pyridyl)-7,8-dihydro-5H-pyrido[4,3-d]pyrimidine], the IC50 came to 8.21 µM.

In the case of `COCCCOc1ccc(N2CCc3nc(-c4ccccn4)ncc3C2)cc1OC` [Example 44, 6-[3-methoxy-4-(3-methoxypropoxy)phenyl]-2-(2-pyridyl)-7,8-dihydro-5H-pyrido[4,3-d]pyrimidine], the IC50 came out at 18.9 µM.

Take `Fc1cc(N2CCc3nc(-c4ccccn4)ncc3C2)ccc1Br` [Example 52, 6-(4-bromo-3-fluoro-phenyl)-2-(2-pyridyl)-7,8-dihydro-5H-pyrido[4,3-d]pyrimidine]: the IC50 turned out to be 1.97 µM.

Regarding `COc1cc(N2CCc3cc(-c4ccccn4)ncc3C2)cc(F)c1F` [Example 96, 2-(3,4-difluoro-5-methoxy-phenyl)-6-(2-pyridyl)-3,4-dihydro-1H-2,7-naphthyridine], the IC50 is 0.162 µM.

For the molecule `Fc1cc(N2CCc3nc(-c4ccccn4)ncc3C2)ccc1OCc1ccccc1` [Example 53, 6-(4-benzyloxy-3-fluoro-phenyl)-2-(2-pyridyl)-7,8-dihydro-5H-pyrido[4,3-d]pyrimidine], the IC50 came out at 1.56 µM.

As for `c1ccc(COc2ccc(N3CCc4nc(-c5ccccn5)ncc4C3)cc2)cc1` [Example 46, 6-(4-benzyloxyphenyl)-2-(2-pyridyl)-7,8-dihydro-5H-pyrido[4,3-d]pyrimidine], the IC50 is 8.79 µM.

In the case of `COCCOc1cc(N2CCc3nc(-c4ccccn4)ncc3C2)ccc1OC` [Example 58, 6-[4-methoxy-3-(2-methoxyethoxy)phenyl]-2-(2-pyridyl)-7,8-dihydro-5H-pyrido[4,3-d]pyrimidine], the half-maximal inhibitory concentration (IC50) stood at 20.2 µM.

For `COc1cc(N2CCc3nc(-c4ccncn4)ncc3C2)cc(F)c1F` [Example 29, 6-(3,4-difluoro-5-methoxy-phenyl)-2-pyrimidin-4-yl-7,8-dihydro-5H-pyrido[4,3-d]pyrimidine], the IC50 was 4.16 µM.

Turning to `COc1cc(N2CCc3cc(-c4ncccn4)ncc3C2)cc(F)c1F` [Example 95, 2-(3,4-difluoro-5-methoxy-phenyl)-6-pyrimidin-2-yl-3,4-dihydro-1H-2,7-naphthyridine], the IC50 was 0.061 µM.

As for `Fc1cc(N2CCc3nc(-c4ncccn4)ncc3C2)cc(F)n1` [Example 109, 6-(2,6-difluoro-4-pyridyl)-2-pyrimidin-2-yl-7,8-dihydro-5H-pyrido[4,3-d]pyrimidine], the IC50 came out at 4.09 µM.

As to `COC(=O)c1cc(F)cc(N2CCc3nc(-c4ncccn4)ncc3C2)c1` [Example 102, methyl 3-fluoro-5-(2-pyrimidin-2-yl-7,8-dihydro-5H-pyrido[4,3-d]pyrimidin-6-yl)benzoate], the half-inhibitory concentration (IC50) amounted to 11.9 µM.

`Clc1cc(Cl)nc(N2CCc3nc(-c4ncccn4)ncc3C2)c1` [Example 113, 6-(4,6-dichloro-2-pyridyl)-2-pyrimidin-2-yl-7,8-dihydro-5H-pyrido[4,3-d]pyrimidine]: the IC50 is 0.161 µM.

For `Fc1cc(Br)cc(N2CCc3nc(-c4ncccn4)ncc3C2)c1` [Example 41, 6-(3-bromo-5-fluoro-phenyl)-2-pyrimidin-2-yl-7,8-dihydro-5H-pyrido[4,3-d]pyrimidine], the IC50 turned out to be 0.5 µM.

With `c1cnc(-c2ncc3c(n2)CCN(c2nccs2)C3)nc1` [Example 119, 2-(2-pyrimidin-2-yl-7,8-dihydro-5H-pyrido[4,3-d]pyrimidin-6-yl)thiazole], the IC50 is 6.08 µM.

Take `COCCCOc1cc(N2CCc3nc(-c4ccccn4)ncc3C2)cc(F)c1F` [Example 19, 6-[3,4-difluoro-5-(3-methoxypropoxy)phenyl]-2-(2-pyridyl)-7,8-dihydro-5H-pyrido[4,3-d]pyrimidine]: the IC50 is 0.461 µM.

Turning to `COc1cc(N2CCc3nc(-c4ccccn4)ncc3C2)ccc1F` [Example 90, 6-(4-fluoro-3-methoxy-phenyl)-2-(2-pyridyl)-7,8-dihydro-5H-pyrido[4,3-d]pyrimidine], the IC50 came to 0.933 µM.

For the molecule `COc1cccc(N2CCc3nc(-c4ccccn4)ncc3C2)c1` [Example 92, 6-(3-methoxyphenyl)-2-(2-pyridyl)-7,8-dihydro-5H-pyrido[4,3-d]pyrimidine], the IC50 was determined as 2.89 µM.

Turning to `CS(=O)(=O)c1cccc(N2CCc3nc(-c4ccccn4)ncc3C2)c1` [Example 11, 6-(3-methylsulfonylphenyl)-2-(2-pyridyl)-7,8-dihydro-5H-pyrido[4,3-d]pyrimidine], the IC50 was found to be 17.4 µM.

Consider `CCOc1cc(N2CCc3nc(-c4ccccn4)ncc3C2)ccc1C(=O)O` [Example 66, 2-ethoxy-4-[2-(2-pyridyl)-7,8-dihydro-5H-pyrido[4,3-d]pyrimidin-6-yl]benzoic acid], for which the IC50 is 13.2 µM.

As for `COc1cc(OC)cc(N2CCc3nc(-c4ncccn4)ncc3C2)c1` [Example 73, 6-(3,5-dimethoxyphenyl)-2-pyrimidin-2-yl-7,8-dihydro-5H-pyrido[4,3-d]pyrimidine], the IC50 was 1.96 µM.

With `COc1cc(Cl)cc(N2CCc3nc(-c4ncccn4)ncc3C2)c1` [Example 98, 6-(3-chloro-5-methoxy-phenyl)-2-pyrimidin-2-yl-7,8-dihydro-5H-pyrido[4,3-d]pyrimidine], the IC50 was found to be 0.268 µM.

Regarding `Fc1ccc(N2CCc3nc(-c4ccccn4)ncc3C2)cc1F` [Example 10, 6-(3,4-difluorophenyl)-2-(2-pyridyl)-7,8-dihydro-5H-pyrido[4,3-d]pyrimidine], the half-inhibitory concentration (IC50) amounted to 2.69 µM.

Regarding `Clc1cc(N2CCc3nc(-c4ncccn4)ncc3C2)cc(Cl)n1` [Example 114, 6-(2,6-dichloro-4-pyridyl)-2-pyrimidin-2-yl-7,8-dihydro-5H-pyrido[4,3-d]pyrimidine], the 50% inhibitory concentration (IC50) was found to be 1.17 µM.

For `COc1cc(N2CCc3nc(-c4ccccn4)ncc3C2)ccc1C#N` [Example 60, 2-methoxy-4-[2-(2-pyridyl)-7,8-dihydro-5H-pyrido[4,3-d]pyrimidin-6-yl]benzonitrile], the IC50 was found to be 0.371 µM.
